From patent US4797427A, “Aromatic diamines containing sulfonic acid aryl esters, a process for their production and their use in the production of polyurethane plastics” (Bayer Aktiengesellschaft, priority 1987, dated 1989)

Test: Ames test
Type: cell-based

## Cc1c(N)cc(S(=O)(=O)Oc2ccccc2)cc1N [2,6-diaminotoluene-4-sulfonic acid phenyl ester]
  Ames test: Ames-negative
